# In patent US20020099086A1, “Use of extracts from aristolochia in the treatment of AIDS” (PROTEOME SCIENCES PLC, priority 1998, published 2002):
# Assays:
# brine shrimp = experiment: Brine shrimp bioassay (cytotoxicity); assay type: in vivo; conditions: for LC50: brine shrimp, 24 hours
# Protocol: The cytotoxicity of compounds isolated from Aristolochia taliscana was assayed using the well known brine shrimp bioassay. The cytotoxicities of compounds of the invention, expressed as percentage “death rates” after 24 hours, at varying concentrations, are shown in Table 8 below.
# [1] = tested on: Salmonella typhimurium strain TA 100; experiment: Ames bio-assay, antimutagenic activity against 2-nitrofluorene (2-NF); assay type: cell-based; conditions: for Residual mutagenic activity (%) observed for 2-NF: 1 μg 2-NF per plate
# Protocol: (§1) The four major constituents of the benzene extract from Aristolochia taliscana roots—eupomatenoid-7 (7), eupomatenoid-1 (8), eupomatenoid-8 (17), Licarin-A (16)—were tested for their mutagenic and antimutagenic properties using the Ames bio-assay (Maron, D. M. and Ames, B. N., Mutation reasearch, 1983, 113, 173). The test compounds have the following structural formula: [drawing 11]
# (§2) Salmonella typhimurium strain TA 100 was used as the test organism and 2-amino-anthracene (2-AA) and 2-nitrofluorene (2-NF) as standard mutagens, of which 1 μg were added to each test plate. In the experiments with 2-AA, “S9 Mix” (derived from phenobarbital treated rat liver cells (De Flora, S., Camoirana, A., D'Agostini, F. and Balansky, R., Mutation Research, 1992, 267, 183) was also added.
# Rhizoctonia solani = experiment: Antifungal plate diffusion method; assay type: cell-based; conditions: 150 microgramme aliquot spotted onto plate
# Protocol: (§3) The antifungal activities of compounds of the invention was determined using a plate diffusion method. Plates containing medium and a fungal species were made up and 150 microgramme aliquots of a test compound of the invention were spotted onto the plate. The diameter of inhibition of fungal growth around the test compound was then determined.
# Botryis cinerea = experiment: Antifungal plate diffusion method; assay type: cell-based; conditions: 150 microgramme aliquot spotted onto plate
# Protocol: as §3
# Saprolegnia asterophora = experiment: Antifungal plate diffusion method; assay type: cell-based; conditions: 150 microgramme aliquot spotted onto plate
# Protocol: as §3
# [2] = tested on: Salmonella typhimurium strain TA 100; experiment: Ames bio-assay, antimutagenic activity against 2-amino-anthracene (2-AA) with S9 Mix; assay type: cell-based; conditions: for Residual mutagenic activity (%) observed for 2-AA: 1 μg 2-AA per plate, S9 Mix
# Protocol: as §1, §2
# serotonin receptors = experiment: Interaction with neurotransmitter receptors; assay type: binding
# Parkinsonism = conditions: disclosed in U.S. Pat. No. 4782077; cited from earlier work
# dopamine receptors = experiment: Interaction with neurotransmitter receptors; assay type: binding
# opiate mu receptor = opiate mu receptor (Homo sapiens, UniProt P35372); experiment: Interaction with neurotransmitter receptors; assay type: binding
# Sequence of opiate mu receptor (P35372 whole entry): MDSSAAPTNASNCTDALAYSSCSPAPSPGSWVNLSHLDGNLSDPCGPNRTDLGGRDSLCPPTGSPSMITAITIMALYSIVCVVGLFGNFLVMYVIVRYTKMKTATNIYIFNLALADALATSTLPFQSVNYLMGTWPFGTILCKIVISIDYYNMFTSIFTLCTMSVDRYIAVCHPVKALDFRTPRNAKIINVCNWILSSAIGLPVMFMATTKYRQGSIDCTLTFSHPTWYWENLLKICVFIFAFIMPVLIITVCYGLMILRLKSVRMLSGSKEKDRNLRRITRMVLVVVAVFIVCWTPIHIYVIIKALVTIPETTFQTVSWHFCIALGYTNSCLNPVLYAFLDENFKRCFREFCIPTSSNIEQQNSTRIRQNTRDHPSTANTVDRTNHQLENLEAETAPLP
# [3] = tested on: remaining receptors of twenty seven common receptor types; experiment: Interaction with neurotransmitter receptors; assay type: binding; conditions: twenty seven common receptor types tested
# GABA receptors = experiment: Interaction with neurotransmitter receptors; assay type: binding
Compound,“Death Rate” After 24 Hours (%) (brine shrimp; 10 ppm),“Death Rate” After 24 Hours (%) (brine shrimp; 100 ppm),“Death Rate” After 24 Hours (%) (brine shrimp; 500 ppm),LC50 (brine shrimp),"diameter of inhibition of fungal growth, Rhizoctonia solani (Rhizoctonia solani)","diameter of inhibition of fungal growth, Botryis cinerea (Botryis cinerea)","diameter of inhibition of fungal growth, Saprolegnia asterophora (Saprolegnia asterophora)",also measured
C/C=C/c1cc(OC)c2oc(-c3ccc(O)c(OC)c3)c(CO)c2c1,,,,,,,,melting point: 175 to 179 °C
COc1cc(C2(C)COc3c(OC)cc(C=O)cc32)ccc1O (stereo not shown),,,,,,,,melting point: 162 to 165 °C
COc1cc(-c2oc3c(OC)cc(/C=C/CO)cc3c2C)ccc1O,,,,,,,,melting point: 180 to 183 °C
C=CC(O)c1cc(OC)c2oc(-c3ccc(O)c(OC)c3)c(C)c2c1 (racemic),,,,,,,,melting point: 164 to 167 °C
"CC=Cc1cc(OC)c2c(c1)C(C)C(c1ccc3c(c1)OCO3)O2 (single isomer, unassigned; (-)) [Eupomatenoid-8 (17)]",9,27,42,>500 ppm,−,−,−,antimutagenic effect against 2-nitrofluorene (in words) [1]: did not show any antimutagenic effect; Residual mutagenic activity (%) observed for 2-NF ([1]; 50 μg compound added): 100%; Residual mutagenic activity (%) observed for 2-NF ([1]; 100 μg compound added): 95%; antimutagenic effect against 2-aminoanthracene (in words) [2]: did not show any antimutagenic effect; Residual mutagenic activity (%) observed for 2-AA ([2]; 50 μg compound added): 90%; Residual mutagenic activity (%) observed for 2-AA ([2]; 100 μg compound added): 73%
"COc1ccc2cc3c4c(cc(OC)c(OC)c4c2c1)C(=O)N3 [Aristolactam B (3), Aristolactam B III]",5,9,29,>500 ppm,+ (+ = 5 mm diameter inhibition),−,−,
"COc1cc2c(cc1C)C(=O)[C@H](O)C[C@@H]2C [Compound 34, (2R,4S)-2-Hydroxy-6-methoxy-4,7-dimethyl-1-tetralone]",52,86,100,<10 ppm,++ (++ = 5-10 mm diameter inhibition),++ (++ = 5-10 mm diameter inhibition),++ (++ = 5-10 mm diameter inhibition),
"COc1cc(/C=C/CO)ccc1O [Coniferyl alcohol (29), Coniferyl alcohol]",0,0,15,>500 ppm,−,−,−,
"C=C1/C=C/[C@@H](C(C)C)CC/C(C)=C/CC1 [E-Germacrene D (38), ent-Germacrene-D]",0,39,100,ca. 126 ppm,+ (+ = 5 mm diameter inhibition),+ (+ = 5 mm diameter inhibition),−,
"CC=Cc1cc(OC)c2oc(-c3ccc4c(c3)OCO4)c(C)c2c1 [Eupomatenoid-1 (8), Eupomatenoid-1]",12,16,20,>500 ppm,−,−,−,antimutagenic effect against 2-nitrofluorene (in words) [1]: not against 2-NF; Residual mutagenic activity (%) observed for 2-NF ([1]; 50 μg compound added): 99%; Residual mutagenic activity (%) observed for 2-NF ([1]; 100 μg compound added): 93%; antimutagenic effect against 2-aminoanthracene (in words) [2]: antimutagenically active; Residual mutagenic activity (%) observed for 2-AA ([2]; 50 μg compound added): 49%; Residual mutagenic activity (%) observed for 2-AA ([2]; 100 μg compound added): 44%
"C/C=C/c1cc(OC)c2oc(-c3ccc(O)c(OC)c3)c(C)c2c1 [Eupomatenoid-7 (7), Eupomatenoid-7]",27,38,38,>500 ppm,−,−,−,antimutagenic effect against 2-nitrofluorene (in words) [1]: strong antimutagenic effects; Residual mutagenic activity (%) observed for 2-NF ([1]; 50 μg compound added): 16%; Residual mutagenic activity (%) observed for 2-NF ([1]; 100 μg compound added): 0%; antimutagenic effect against 2-aminoanthracene (in words) [2]: strong antimutagenic effects; Residual mutagenic activity (%) observed for 2-AA ([2]; 50 μg compound added): 4%; Residual mutagenic activity (%) observed for 2-AA ([2]; 100 μg compound added): 0%
"C/C=C/c1cc(OC)c2c(c1)[C@H](C)[C@@H](c1ccc(O)c(OC)c1)O2 [Licarin-A (16), Licarin-A]",93,93,96,<10 ppm,++ (++ = 5-10 mm diameter inhibition),−,−,antimutagenic effect against 2-nitrofluorene (in words) [1]: not against 2-NF; Residual mutagenic activity (%) observed for 2-NF ([1]; 50 μg compound added): 94%; Residual mutagenic activity (%) observed for 2-NF ([1]; 100 μg compound added): 85%; antimutagenic effect against 2-aminoanthracene (in words) [2]: antimutagenically active; Residual mutagenic activity (%) observed for 2-AA ([2]; 50 μg compound added): 31%; Residual mutagenic activity (%) observed for 2-AA ([2]; 100 μg compound added): 6%
"COc1cc([C@@H]2c3cc4c(cc3[C@H](O)[C@H]3COC(=O)[C@H]23)OCO4)cc(OC)c1OC [Podophyllotoxin, reference compound]",74,93,100,<10 ppm,,,,
"COc1cc(C=O)ccc1O [Vanillin (31), Vanillin]",5,0,12,>500 ppm,−,−,−,
"(+)(2R, 3R)-Dihydrocarinatidin [Dihydrocarinatidine (21)]",26,53,80,ca. 120 ppm,+ (+ = 5 mm diameter inhibition),+ (+ = 5 mm diameter inhibition),+ (+ = 5 mm diameter inhibition),
Aristolactam C III [Aristolactam C (4)],0,0,3,>500 ppm,+ (+ = 5 mm diameter inhibition),+ (+ = 5 mm diameter inhibition),++ (++ = 5-10 mm diameter inhibition),
Taliscanine [Taliscanine (5)],,,,,,,,"activity at the serotonin receptors (serotonin receptors): negligible activity; symptoms of Parkinsonism and related neurological disorders (Parkinsonism): alleviates the symptoms of Parkinsonism and related neurological disorders; activity at the dopamine receptors (dopamine receptors): negligible activity; inhibition, opiate mu receptor (opiate mu receptor): 50%; levels of inhibition with the remaining receptors [3]: very poor levels of inhibition; activity at the GABA receptors (GABA receptors): negligible activity"
